Measured values taken from patent US12351836B2, “Microhomology mediated repair of microduplication gene mutations” (UNIVERSITY OF MASSACHUSETTS, priority 2018, dated 2025).

Target: PARP-1 (Homo sapiens, UniProt P09874)
Experiment: PARP-1 inhibition by rucaparib: MMEJ-based repair at the HPS1 locus in HPS1 B-LCL cells treated with SpyCas9 RNP
Assay type: cell-based
Excerpt: To investigate whether nuclease-mediated collapse of a microduplication occurs via the MMEJ pathway, a DNA repair factor (PARP-1) that regulates DSB flux through this pathway was inhibited. PARP-1 influences the repair of a DSB through resection-dependent DNA repair pathways, such as MMEJ^3,16, which are in competition with the non-homologous end joining pathway (NHEJ) for DSB repair^17. Inhibition of the catalytic activity of PARP-1 by rucaparib reduces DSB flux through the MMEJ pathway, resulting in a decrease in microhomology-based deletion products in the resulting repair events^18. See, FIG. 18A. Patient-derived HPS1 B-LCL cells were treated with 10 µM or 20 μM rucaparib before and after treatment with SpyCas9 RNP to suppress MMEJ-mediated repair of DSBs. See, FIG. 12A. […] See, FIG. 12B. […] See, FIG. 12B-12D. […] See, FIG. 18.
For the PARP-1 inhibition experiments, 300,000 HPS1 patient-derived B-LCL cells were treated with 10 μM or 20 μM rucaparib camsylate (Sigma-Aldrich PZ0036) in standard growth medium for 24 h. Treated cells were electroporated with SpyCas9 RNPs following previously described protocol. Following another 24 h incubation in rucaparib-containing medium, cells were resuspended in PARP-1 inhibitor-free medium and harvested for analysis after 7 days.
The construction of the UMI-based library used a linear amplification step to incorporate UMIs within the amplicons from the target locus^15. HPS1 B-LCL cells and HEK293 Ts were harvested following nuclease treatment for genomic DNA extraction using the GenElute Mammalian Genomic DNA Miniprep Kit (Sigma GIN350).
The analysis of the UMI-tagged deep sequencing reads was adapted from a previous protocol^15. Initially, BWA (version 0.7.5) and SAMtools (version 0.1.19) were used to align each group of filtered merged-read pairs to a corresponding reference sequence, ignoring the unique molecular barcodes. Next, a custom Python and PySAM script was used to process mapped reads into counts of UMI-labelled reads for each target. The mapped reads were filtered by requiring a mapping value (MAPQ) larger than 30. […]

Sequence of PARP-1 (P09874 whole entry): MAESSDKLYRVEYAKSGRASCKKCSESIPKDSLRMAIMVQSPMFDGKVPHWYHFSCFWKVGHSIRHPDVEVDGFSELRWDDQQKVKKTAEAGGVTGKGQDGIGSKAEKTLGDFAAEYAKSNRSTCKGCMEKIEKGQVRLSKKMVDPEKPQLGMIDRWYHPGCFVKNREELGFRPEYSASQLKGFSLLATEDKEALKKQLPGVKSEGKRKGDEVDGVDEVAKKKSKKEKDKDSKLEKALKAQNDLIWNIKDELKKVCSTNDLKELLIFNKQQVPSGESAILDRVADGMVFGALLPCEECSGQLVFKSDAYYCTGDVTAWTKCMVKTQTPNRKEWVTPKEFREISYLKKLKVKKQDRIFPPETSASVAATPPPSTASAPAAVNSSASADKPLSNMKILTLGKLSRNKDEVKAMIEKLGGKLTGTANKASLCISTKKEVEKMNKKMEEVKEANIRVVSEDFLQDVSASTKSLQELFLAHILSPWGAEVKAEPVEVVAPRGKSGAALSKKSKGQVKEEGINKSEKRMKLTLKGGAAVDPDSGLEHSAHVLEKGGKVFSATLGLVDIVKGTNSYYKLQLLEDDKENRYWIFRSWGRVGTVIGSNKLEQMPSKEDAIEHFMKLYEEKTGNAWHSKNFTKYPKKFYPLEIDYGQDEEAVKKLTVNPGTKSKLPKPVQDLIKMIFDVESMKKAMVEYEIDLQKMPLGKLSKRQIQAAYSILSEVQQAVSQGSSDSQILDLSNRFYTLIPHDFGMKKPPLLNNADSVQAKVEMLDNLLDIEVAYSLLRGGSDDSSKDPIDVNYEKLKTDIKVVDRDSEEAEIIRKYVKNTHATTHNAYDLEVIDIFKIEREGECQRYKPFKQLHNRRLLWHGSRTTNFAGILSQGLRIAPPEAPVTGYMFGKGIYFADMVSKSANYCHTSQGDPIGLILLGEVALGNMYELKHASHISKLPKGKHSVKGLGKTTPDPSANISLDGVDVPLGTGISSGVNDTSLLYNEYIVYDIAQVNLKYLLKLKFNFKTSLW

Compound: CNCc1ccc(-c2[nH]c3cc(F)cc4c3c2CCNC4=O)cc1 [rucaparib, rucaparib camsylate]
- 16-bp deletion product (10 μM rucaparib 24 h before and after SpyCas9 RNP): around 15%
- 16-bp deletion product (20 μM rucaparib 24 h before and after SpyCas9 RNP): ~6%
- editing rates at the HPS1 locus upon rucaparib treatment (10 or 20 μM rucaparib): overall reduction in editing rates
